This is an account of results in US20240189315A1, “Cyclic Pyridine Derivatives as cGAS Inhibitors” (Boehringer Ingelheim International GmbH, priority 2022, published 2024).

Like-named read-outs stand apart in the source and are kept apart here. Some results are limits rather than exact numbers.

Assay [1] deals with Human cGAS enzyme (Homo sapiens (Human), UniProt Q8N884). Briefly: Human cGAS enzyme assay (hcGAS IC50, in vitro), cGAMP formation by RapidFire MS.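 Also: recombinant human cGAS activated by 45 bp dsDNA with 30 µM each ATP and GTP, 90 min, cGAMP vs cyclic-di-GMP standard by MS, 8-point titration from 10 µM.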 The class given is biochemical.
Chain of Human cGAS enzyme (Q8N884 whole entry): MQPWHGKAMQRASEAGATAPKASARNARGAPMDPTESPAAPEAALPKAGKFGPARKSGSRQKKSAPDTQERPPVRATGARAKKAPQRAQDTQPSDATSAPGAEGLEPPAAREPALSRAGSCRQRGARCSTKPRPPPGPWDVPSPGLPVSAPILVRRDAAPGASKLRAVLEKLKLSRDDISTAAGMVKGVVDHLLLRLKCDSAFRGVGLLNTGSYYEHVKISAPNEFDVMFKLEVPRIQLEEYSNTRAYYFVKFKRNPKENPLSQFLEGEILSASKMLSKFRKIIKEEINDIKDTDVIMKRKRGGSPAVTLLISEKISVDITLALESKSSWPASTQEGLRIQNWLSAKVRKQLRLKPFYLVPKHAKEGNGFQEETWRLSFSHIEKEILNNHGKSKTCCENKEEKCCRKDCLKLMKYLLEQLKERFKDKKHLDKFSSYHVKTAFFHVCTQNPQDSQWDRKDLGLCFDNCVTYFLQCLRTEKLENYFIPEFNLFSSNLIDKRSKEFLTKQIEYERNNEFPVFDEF
In assay [2] the target is cellular cGAS activity in baculovirus-stimulated THP1-Dual cells (Homo sapiens (Human), UniProt Q8N884). The assay is described as follows: Human cGAS cell assay (THP1(vir) IC50): IFN induction in virus-stimulated THP1-Dual cells, IRF Lucia luciferase reporter.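 Also: Eight-point dilution series starting at 10 µM, 1% DMSO, 18 h at 37 °C, luminescence read-out, virus-free wells as 0% and DMSO-treated virus-stimulated wells as 100%.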 The class given is cell-based. On the technique in general: In a reporter assay the amount or activity of a reporter protein is the signal.
Chain of cellular cGAS activity in baculovirus-stimulated THP1-Dual cells (Q8N884 whole entry): as above

Assay [3] concerns pathway directly downstream of cGAS in cGAMP-stimulated THP1-Dual cells. The assay is described as follows: cGAMP stimulated counter cell assay (THP1(cGAMP) IC50): IFN induction in cGAMP-stimulated THP1-Dual cells. As to conditions: for IC50: Homo sapiens, THP1-Dual; for Ratio THP(cGAMP) IC50/ THP(vir) IC50: selectivity for cGAS inhibition. It is filed as cell-based, human. From the text:
6.2 Method: Human cGAS Cell Assay and cGAMP Stimulated Counter Cell Assay (THP1(vir) IC50 and THP1(cGAMP) IC50)
THP1-Dual™ cells (InvivoGen #thpd-nfis) expressing IRF dependent Lucia luciferase reporter were used as basis for both assays. For the detection of cellular cGAS activity cells were stimulated by a baculovirus (pFastbac-1, Invitrogen, no coding insert) infection that delivers the cGAS enzyme stimulating double-stranded DNA (measurement of THP1(vir) IC50).
For the counter assay, cells were stimulated by cGAMP (SigmaAldrich #SML1232) to activate the identical pathway independent and directly downstream of cGAS (measurement of THP1(cGAMP) IC50). Pathway activity was monitored by measuring the Lucia luciferase activity induced by either DNA stimulated cGAS enzyme activity (measurement of THP1(vir) IC50) or by cGAMP directly (measurement of THP1(cGAMP) IC50, counter assay).
Compounds were delivered in 10 mM DMSO solution, serially diluted and transferred to the 384 well assay plate (Greiner #781201) using an Echo acoustic dispenser. Typically, 8 concentrations were used with the highest concentration at 10 μM in the final assay volume followed by ˜1:5 dilution steps. DMSO concentration was set to 1% in the final assay volume. The 384 well assay plate contained 21 test compounds (column 1-22), and DMSO in column 23 and 24.
Cells, cultivated according to manufacturer conditions, were harvested by centrifugation at 300 g/10 min and were then resuspended and diluted to 1.66E5 cells/ml in fresh cell culture medium (RPMI 1640 (Gibco #A10491-01), 10% FCS (Gibco #10500), 1× GlutaMax (Gibco #35050-061), 1× Pen/Strep solution (Gibco #15140-122), 100 μg/ml Normocin (InvivoGen #ant-nr), 100 μg/ml Zeocin (InvivoGen #ant-zn), 10 μg/ml Blasticidin S (Life Technologies #A11139-03)). The baculovirus solution was then added 1:200 (have varied according to virus batch) to the cells (measurement of THP1(vir) IC50). […] 30 μL of the cell/virus-mix were added to each well of the compound plate from column 1-23 via MultiDrop Combi dispenser (5000 cells/well). In column 24, 30 μl/5000 cells/well without virus were added as a low control.
The plates were then incubated for 18 h at 37° C. in a humidified incubator.
Following that, 15 μL of QuantiLuc detection reagent (InvivoGen #rep-qlcg5) were added to each well using a MultiDrop Combi. Measurement was done immediately after the addition using an EnVision reader (US-luminescence read-mode).
Data Evaluation and Calculation:
For data evaluation and calculation, the measurement of the low control was set as 0% control and the measurement of the high control was set as 100% control. The IC50 values were calculated using the standard 4 parameter logistic regression formula. Calculation: [y=(a−d)/(1+(x/c)^b)+d], a=low value, d=high value; x=conc M; c=IC50 M; b=slope

The target of assay [4] is cellular cGAS activity in dsDNA-stimulated human whole blood (Homo sapiens (Human), UniProt Q8N884). The assay is described as follows: Human whole blood assay (hWB IC50): IFNα2a production after dsDNA transfection.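 Also: IFNα-2a in plasma measured by MSD electrochemiluminescence immunoassay after 22 h at 37 °C, 8-point dilution series from 10 µM top concentration, DMSO wells as controls.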 The class given is cell-based.
Chain of cellular cGAS activity in dsDNA-stimulated human whole blood (Q8N884 whole entry): as above
Method: 6.3 Method: Human Whole Blood Assay (Human WB IC50) For the detection of cellular cGAS activity human whole blood was stimulated by transfection with double stranded DNA. Pathway activity was monitored by measuring the IFNα2α production.
Compounds were delivered as 10 mM DMSO solution and serially diluted and transferred to the 96-well cell culture plate (Corning #3595), prefilled with 20 μl OptiMEM (Gibco, #11058-021) in each well, using an Echo acoustic dispenser. Typically, 8 concentrations were used with the highest concentration at 10 μM in the final assay volume followed by ˜1:5 dilution steps. DMSO concentration was set to 0.1% in the final assay volume. The 96-well assay plate contained 10 test compounds, and DMSO in control wells.
Collection of human whole blood from 3 or more healthy donors (male or female, no medication for 7 days except contraceptive and thyroxine) as Na-Citrate blood (e.g. 3.8% in Monovettes from Sarstedt) was conducted in parallel. Whole blood was kept at room temperature for a maximum of 3 hours after collection until use in the assay.
160 μl of the whole blood samples was transferred to each well of the 96-well assay plates filled with compound/OptiMEM. All assay plates were prepared as duplicates with blood from different donors. Blood plates were kept at room temperature for 60 minutes and continuous shaking with 450 rpm, covered with the lid, but not sealed.
20 μl OptiMEM and 9.6:1 Fugene was added to all low control wells.
After covering assay plates with area seals and the lid, blood plates were kept at room temperature for 30 minutes and continuous shaking with 450 rpm, followed by an overnight incubation of 22 h at 37° C. in the incubator, without shaking.
For the detection of IFNα-2a in human plasma, the biotinylated capture antibody (Antibody set IFNA2, Meso Scale Diagnostics #B21VH-3, including coating and capture antibody) was diluted 1:17.5 in Diluent 100 (Meso Scale Diagnostics #R50AA-4), according to the manufacturer's directions. U-Plex MSD GOLD 96-well Small Spot Strepavidin SECTOR Plates (Meso Scale Diagnostics #L45SA-5) were coated with 25 μl diluted capture antibody. Coated plates were incubated for 60 min at room temperature under continuous shaking at 700 rpm. MSD IFNα-2a plates were washed three times with 150 μl wash buffer (1×HBSS, 0.05% Tween).
After blocking the plates with 100 μl block solution/well (1×HBSS with 0.2% Tween, 2% BSA) for 60 min at room temperature and continuous shaking at 700 rpm, plates were emptied as dry as possible by dumping just before continuing with the human plasma.
Whole Blood assay plates were centrifuged at 1600 rpm for 10 minutes. 25 μl of supernatant was transferred with a pipetting robot from each whole blood plate to the corresponding IFNα-2a plate.
Plates were sealed with microplate seals and kept at room temperature again under continuous shaking at 700 rpm for two hours.
Next MSD IFNα-2a plates were washed three times with 150 μl wash buffer (1×HBSS, 0.05% Tween), before adding 25 μl MSD SULFO-TAG IFNα-2a Antibody solution (1:100 diluted in Diluent 3 (Meso Scale Diagnostics #R50AP-2) to each well of the plates.
Afterwards plates were sealed with microplate seals and kept at room temperature again under continuous shaking at 700 rpm for two hours. Finally, MSD IFNα-2a plates were washed three times with 150 μl wash buffer (1×HBSS, 0.05% Tween). 150 μl 2× Read buffer was added to each well and plates were immediately measured with the MSD Sector S600 Reader using the vendor barcode.
For data evaluation and calculation,% control calculation of each well was based on the mean of high (DNA stimulated control) and mean of low (unstimulated control) controls by using the following formula:
The IC50-values were calculated using the standard 4 parameter logistic regression formula.
The mark [5] stands for this setting: Table 1, virus-stimulated THP1 cells, read-out: THP(vir) IC50.
[6] abbreviates: Table 1, cGAMP-stimulated THP1 cells, read-out: THP(cGAMP) IC50.
Where [7] appears, read: Table 1, dsDNA-stimulated human whole blood.

In general, IC50 refers to the concentration at which inhibition is half-maximal. As for `CC#Cc1cnc2c(c1)[C@@]1(F)CCN(C[C@@H]1C)C(=O)COCCCCc1nc(c3oc4ccccc4c3n1)N1C[C@H](C[C@H]1C(=O)O)O2` [Example 29, (1R,9S,11S,34S)-1-fluoro-34-methyl-31-oxo-4-(prop-1-yn-1-yl)-8,15,29-trioxa-6,12,23,32,37-penta-azaheptacyclo[30.2.2.1^9,12.1^13,24.0^2,7.0^14,22.0^16,21]octatriaconta-2(7),3,5,13,16(21),17,19,22,24(37)-nonaene-11-carboxylic acid], the IC50 in assay [1] (Table 1) is 14 nM; in assay [2] (setting [5]) it was 57 nM; in assay [3] (setting [6]) it was 2200 nM; in assay [4] (setting [7]), 22 nM. Besides, in assay [3] (Table 1), the “Ratio THP(cGAMP) IC50/ THP(vir) IC50” value worked out at 39.

`C[C@H]1CN2CC[C@]1(F)c1cc(Cl)cnc1O[C@H]1C[C@@H](C(=O)O)N(C1)c1nc(nc3c1oc1ccccc13)C(F)(F)COCCCC2=O` [Example 21, (1R,9S,11S,34S)-4-chloro-1,25,25-trifluoro-34-methyl-31-oxo-8,15,27-trioxa-6,12,23,32,37-penta-azaheptacyclo[30.2.2.1^9,12.1^13,24.0^2,7.0^14,22.0^16,21]octatriaconta-2,4,6,13(37),14(22),16(21),17,19,23-nonaene-11-carboxylic acid]: the IC50 was 5 nM in assay [1] (Table 1), 3 nM in assay [2] (setting [5]), 10000 nM in assay [3] (setting [6]) and 7 nM in assay [4] (setting [7]). Also, the “Ratio THP(cGAMP) IC50/ THP(vir) IC50” value in assay [3] (Table 1) was determined as 3281.

As for `C[C@H]1CN2CC[C@]1(F)c1cc(Cl)cnc1O[C@H]1C[C@@H](C(=O)O)N(C1)c1nc(nc3c1oc1ccccc13)CCOCCCC2=O` [Example 16], the IC50 in assay [1] (Table 1) turned out to be 11 nM; in assay [2] (setting [5]) it was 36 nM; in assay [3] (setting [6]) it was 6600 nM; in assay [4] (setting [7]) it was 101 nM. Also, the “Ratio THP(cGAMP) IC50/ THP(vir) IC50” value in assay [3] (Table 1) is recorded as 184.

In the case of `CC(C)(C(=O)N[C@H]1C[C@@H](C(=O)O)N(c2nc(C(F)(F)F)nc3c2oc2ccccc23)C1)c1cn[nH]c1` [compound 58], the IC50 in assay [1] (Table 2, compounds from WO 2020/142729 re-tested in the applicant's assay) was 320 nM; in assay [2] (Table 2, compounds from WO 2020/142729, read-out: THP1(vir) IC50), 21000 nM; in assay [3] (Table 2, compounds from WO 2020/142729, read-out: THP1(cGAMP) IC50), 23000 nM; in assay [4] (Table 2, compounds from WO 2020/142729), over 9980 nM.

Take `C[C@H]1CN2CC[C@]1(F)c1cc(Cl)cnc1O[C@H]1C[C@@H](C(=O)O)N(C1)c1nc(nc3c1oc1ccccc13)C(F)(F)CCCOCC2=O` [Example 31]: the IC50 in assay [1] (Table 1) is 7 nM; in assay [2] (setting [5]), 3 nM; in assay [3] (setting [6]), 7200 nM; in assay [4] (setting [7]) it was 5 nM. Besides, the “Ratio THP(cGAMP) IC50/ THP(vir) IC50” value in assay [3] (Table 1) is 3002.

As to `C[C@H]1CN2CC[C@]1(F)c1cc(Cl)cnc1O[C@H]1C[C@@H](C(=O)O)N(C1)c1nc(nc3c1oc1ccccc13)CCCCOCC2=O` [Example 27], the IC50 in assay [1] (Table 1) is 5 nM; in assay [2] (setting [5]), 83 nM; in assay [3] (setting [6]), 1700 nM; in assay [4] (setting [7]), 33 nM. Besides, the “Ratio THP(cGAMP) IC50/ THP(vir) IC50” value in assay [3] (Table 1) came to 20.

For `COc1cc(-c2cnc3c(c2)[C@@]2(F)CCN(C[C@@H]2C)C(=O)CCCOCCc2nc(c4oc5ccccc5c4n2)N2C[C@H](C[C@H]2C(=O)O)O3)c(F)cn1` [Example 20.03], the IC50 came to 18 nM in assay [1] (Table 1), 18 nM in assay [2] (setting [5]), 5900 nM in assay [3] (setting [6]) and 38 nM in assay [4] (setting [7]). Also, in assay [3] (Table 1), the “Ratio THP(cGAMP) IC50/ THP(vir) IC50” value came to 321.

In the case of `C[C@H]1CN2CC[C@]1(F)c1cc(Cl)cnc1O[C@H]1C[C@@H](C(=O)O)N(C1)c1nc(nc3c1oc1ccccc13)C(F)(F)OCCCCC2=O` [Example 15, (1R,9S,11S,34S)-4-chloro-1,25,25-trifluoro-34-methyl-31-oxo-8,15,26-trioxa-6,12,23,32,37-pentaazaheptacyclo[30.2.2.1^9,12.1^13,24.0^2,7.0^14,22.0^16,21]octatriaconta-2(7),3,5,13(37),14(22),16(21),17,19,23-nonaene-11-carboxylic acid], the IC50 is 11 nM in assay [1] (Table 1), 70 nM in assay [2] (setting [5]), 8200 nM in assay [3] (setting [6]) and 47 nM in assay [4] (setting [7]). In addition, the “Ratio THP(cGAMP) IC50/ THP(vir) IC50” value in assay [3] (Table 1) is on record as 117.

As to `C[C@H]1CN2CC[C@]1(F)c1cc(Cl)cnc1O[C@H]1C[C@@H](C(=O)O)N(C1)c1nc(nc3c1oc1ccccc13)CCOCCC2=O` [Example 38, (1R,9S,11S,33S)-4-chloro-1-fluoro-33-methyl-30-oxo-8,15,27-trioxa-6,12,23,31,36-pentaaza-heptacyclo[29.2.2.1^9,12.1^13,24.0^2,7.0^14,22.0^16,21]heptatriaconta-2,4,6,13(36),14(22),16(21),17,19,23-nonaene-11-carboxylic acid], the IC50 in assay [1] (Table 1) is 3 nM; in assay [2] (setting [5]) it was 3 nM; in assay [3] (setting [6]), over 10000 nM; in assay [4] (setting [7]), 8 nM. For the same compound, the “Ratio THP(cGAMP) IC50/ THP(vir) IC50” value in assay [3] (Table 1) is given as 2964.

For the compound `O=C(O)[C@@H]1C[C@H]2CN1c1nc(nc3c1oc1ccccc13)C(F)(F)CCCCCC(=O)N1CCC(F)(CC1)c1cc(Cl)cnc1O2` [Example 07], the IC50 in assay [1] (Table 1) turned out to be 100 nM; in assay [2] (setting [5]), 320 nM; in assay [3] (setting [6]) it was 12000 nM; in assay [4] (setting [7]) it was 750 nM. Moreover, in assay [3] (Table 1), the “Ratio THP(cGAMP) IC50/ THP(vir) IC50” value worked out at 37.

Consider `C[C@H]1CN2CC[C@]1(F)c1cc(Cl)cnc1O[C@H]1C[C@@H](C(=O)O)N(C1)c1nc(nc3c1oc1ccccc13)CCOCCOC2=O` [Example 34, (1R,9S,11S,34S)-4-chloro-1-fluoro-34-methyl-31-oxo-8,15,27,30-tetraoxa-6,12,23,32,37-pentaaza-heptacyclo[30.2.2.1^9,12.1^13,24.0^2,7.0^14,22.0^16,21]octatriaconta-2,4,6,13(37),14(22),16(21),17,19,23-nonaene-11-carboxylic acid], for which the IC50 is 8 nM in assay [1] (Table 1), 36 nM in assay [2] (setting [5]), 16000 nM in assay [3] (setting [6]) and 41 nM in assay [4] (setting [7]). Also, in assay [3] (Table 1), the “Ratio THP(cGAMP) IC50/ THP(vir) IC50” value was 450.

In the case of `CC(=O)c1cnc2c(c1)[C@@]1(F)CCN(C[C@@H]1C)C(=O)CCCOCCc1nc(c3oc4ccccc4c3n1)N1C[C@H](C[C@H]1C(=O)O)O2` [Example 19], the half-inhibitory concentration (IC50) in assay [1] (Table 1) is 8 nM; in assay [2] (setting [5]) it was 73 nM; in assay [3] (setting [6]), over 10000 nM; in assay [4] (setting [7]), 146 nM. Also, in assay [3] (Table 1), the “Ratio THP(cGAMP) IC50/ THP(vir) IC50” value was 136.

`C[C@@H]1COCCCc2nc(c3oc4ccccc4c3n2)N2C[C@H](C[C@H]2C(=O)O)Oc2ncc(Br)cc2[C@@]2(F)CCN(C[C@@H]2C)C1=O` [Example 26]: the IC50 in assay [1] (Table 1) is 18 nM; in assay [2] (setting [5]), 46 nM; in assay [3] (setting [6]), 3200 nM; in assay [4] (setting [7]) it was 276 nM. Moreover, the “Ratio THP(cGAMP) IC50/ THP(vir) IC50” value in assay [3] (Table 1) is recorded as 70.

`C[C@H]1CN2CC[C@]1(F)c1cc(Cl)cnc1O[C@H]1C[C@@H](C(=O)O)N(C1)c1nc(nc3c1oc1ccccc13)COCCOCC2=O` [Example 14]: the IC50 in assay [1] (Table 1) was 15 nM; in assay [2] (setting [5]) it was 36 nM; in assay [3] (setting [6]) it was over 10000 nM; in assay [4] (setting [7]), 136 nM. The “Ratio THP(cGAMP) IC50/ THP(vir) IC50” value in assay [3] (Table 1) is given as 282.

`C[C@H]1CN2CC[C@]1(F)c1cc(Cl)cnc1O[C@H]1C[C@@H](C(=O)O)N(C1)c1nc(nc3c1oc1ccccc13)CCCCCC2=O` [Example 36]: the IC50 was 7 nM in assay [1] (Table 1), 130 nM in assay [2] (setting [5]), over 10000 nM in assay [3] (setting [6]) and 79 nM in assay [4] (setting [7]). The “Ratio THP(cGAMP) IC50/ THP(vir) IC50” value in assay [3] (Table 1) turned out to be 80.
